# Reference: patent US20150181885A1, “METHOD FOR CONTROLLING FUNGAL DISEASES IN MUSHROOM PRODUCTION” (priority 2012, published 2015)
# Columns and labels:
# [1] = system: Verticillium fungicola; test: In vitro antifungal activity assay in 96-well microtiter plates against Verticillium fungicola; assay type: cell-based; details: 3 days incubation at 25° C.
# Method: The following compositions are tested: […] Subsequently, 100 μl of a Verticillium fungicola suspension prepared in PCB medium is used to inoculate each well with 5.0×10^3 spores/ml. […] After incubation of the microtiter plates for 3 days at 25° C., the in vitro antifungal activity (%) of the individual active ingredients was assessed by calculating the reduction in mould growth observed in the presence of the active ingredient in comparison to the mould growth observed in the absence of the active ingredient. The expected antifungal activity (E in %) of the active ingredient combination was calculated according to the Colby equation (Colby, 1967): […] wherein X and Y are the observed antifungal activities (in %) of the individual active ingredients X and Y, respectively.
# [2] = system: Trichoderma harzianum; test: In vitro antifungal activity assay in 96-well microtiter plates against Trichoderma harzianum; assay type: cell-based
# Method: Subsequently, 100 μl of a Verticillium fungicola suspension prepared in PCB medium is used to inoculate each well with 5.0×10^3 spores/ml.
# After incubation of the microtiter plates for 3 days at 25° C., the in vitro antifungal activity (%) of the individual active ingredients was assessed by calculating the reduction in mould growth observed in the presence of the active ingredient in comparison to the mould growth observed in the absence of the active ingredient. The expected antifungal activity (E in %) of the active ingredient combination was calculated according to the Colby equation (Colby, 1967): […]
# wherein X and Y are the observed antifungal activities (in %) of the individual active ingredients X and Y, respectively. If the observed antifungal activity (O in %) of the combination exceeds the expected antifungal activity (E in %) of the combination and the resulting synergy factor O/E is thus >1.0, the combined application of the active ingredients leads to a synergistic antifungal effect.
# The experiment was conducted as described in Example 1, except for the fact that the following compositions were tested: • Control (no active ingredient) • 1.25 ppm Natamycin • 5, 10 or 15 ppm thiophanate-methyl • 1.25 ppm Natamycin+5 ppm thiophanate-methyl • 1.25 ppm Natamycin+10 ppm thiophanate-methyl • 1.25 ppm Natamycin+15 ppm thiophanate-methyl
# Furthermore, Trichoderma harzianum was used for inoculation. After 3 and 5 days of incubation at 25° C., the antifungal activity (in %) of the individual and combined active ingredients was determined according to the method described in Example 1.
Compound,Observed antifungal activity O (%) ([1]; Natamycin 2.5 ppm),Observed antifungal activity O (%) ([1]; Thiophanate-methyl 15 ppm),Observed antifungal activity O (%) ([1]; Thiophanate-methyl 20 ppm),"Observed antifungal activity O (%) ([2]; Thiophanate-methyl 5 ppm, 3 days incubation at 25° C.)","Observed antifungal activity O (%) ([2]; Thiophanate-methyl 10 ppm, 5 days incubation at 25° C.)","Observed antifungal activity O (%) ([2]; Thiophanate-methyl 15 ppm, 5 days incubation at 25° C.)"
"C[C@@H]1C/C=C/C=C/C=C/C=C/[C@H](O[C@@H]2O[C@H](C)[C@@H](O)[C@H](N)[C@@H]2O)C[C@@H]2O[C@](O)(C[C@@H](O)C[C@H]3O[C@@H]3/C=C/C(=O)O1)C[C@H](O)[C@H]2C(=O)O [Natamycin, natamycin]",0%,–,–,–,–,–
"COC(=O)NC(=S)Nc1ccccc1NC(=S)NC(=O)OC [Thiophanate-methyl, dimethyl 4,4′-(o-phenylene)bis(3-thioallophanate)]",–,50%,50%,0%,0%,0%
